Assay results from US10214492B2, “Heterocyclic inhibitors of MCT4” (Vettore, LLC, priority 2016, dated 2019).

Legend:
[1] = Pharmacokinetic assay in rat (IV 3 mg/kg, PO 10 mg/kg); type: in vivo; conditions: Male Sprague-Dawley rat; for Rat F: oral bioavailability; for Rat F / half-life: PO 10 mg/kg; for half-life / Vd: plasma; for half-life: read-out: Rat t1/2 (converted); for Vd: volume of distribution, read-out: Rat Vss
Description: (§1) The following are assays that may be used to evaluate the pharmacokinetic properties of Formula (I) in mouse or rat. The assays follow a common procedure recited below.
(§2) 1. […] For PO (oral gavage), DMSO/PEG400 (10:90). Formulations freshly prepared on the day of dosing or prior to dosing. Storage at room temperature.
(§3) 2. Test Species: For Mouse: Male CD1 strain, approximately 6-8 weeks in age, approximately 20-30 g. For Rat: Male Sprague-Dawley strain, approximately 6-8 weeks in age, approximately 200-300 g.
(§4) 3. Dose Level: For IV, 3 mg/kg. For PO, 10 mg/kg.
(§5) 4. Number of animals: 3 per assay.
(§6) 5. PK time points: For IV (plasma): 5 min, 15 min, 1, 2, 4, 6, 8, 24 h post dose. For PO (plasma): 15 min, 30 min, 1, 2, 4, 6, 8, 24 h post dose.
(§7) 6. Blood Sample Collection and Processing. Blood was collected (˜0.2 mL per time point) from jugular vein. Blood of each sample was transferred into plastic micro centrifuge tubes containing anticoagulant of EDTA-K2. Blood samples were centrifuged at 2,000 g for 5 minutes at 4° C. to obtain plasma.
(§8) 7. Samples Analysis: Plasma samples were analyzed using LC/MS/MS method, and pharmacokinetic parameters (half-life: t1/2; oral bioavailability: F; volume of distribution: Vss).

[2] = Metabolic stability in human liver microsomes (in vitro t1/2); type: in vitro ADME; conditions: for half-life at 2 µM: human liver microsomes 0.5 mg/mL, 2 μM compound, read-out: Human microsome t1/2, min; for Human microsome % 60 min: human liver microsomes
Procedure, shortened: (§9)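 Liver microsomes (0.5 mg/mL final) incubated with test compound at 2 μM final plus NADPH; samples taken at 0, 15, 30, 45 and 60 min. Parent remaining quantified by LC-MS/MS; k from ln(% remaining) vs time regression, in vitro t1/2 = −0.693/k.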

[3] = Metabolic stability in rat liver microsomes (in vitro t1/2); type: in vitro ADME; conditions: for half-life at 2 µM: rat liver microsomes 0.5 mg/mL, 2 μM compound, read-out: Rat microsome t1/2, min; for Rat microsome % 60 min: rat liver microsomes
Description: The following are assays that may be used to evaluate the metabolic stability of compounds of Formula (I) in human, rat, or mouse microsomes. The assays follow a common procedure recited below. 1. […] Two separated experiments were performed as follows. a) With NADPH: 10 μL of 20 mg/mL liver microsomes and 40 μL of 10 mM NADPH were added to the incubations. […] The final concentration of microsomes was 0.5 mg/mL. 3. The reaction was started with the addition of 4 μL of 200 μM control compound or test compound solutions. Verapamil was used as positive control in this study. The final concentration of test compound or control compound was 2 μM. 4. Aliquots of 50 μL were taken from the reaction solution at 0, 15, 30, 45 and 60 min. […] Samples were centrifuged at 3,220 g for 40 minutes. A 90 μL aliquot of the supernatant was mixed with 90 μL of ultra-pure H2O and then used for LC-MS/MS analysis. 5. Data analysis. All calculations were carried out using Microsoft Excel. Peak areas were determined from extracted ion chromatograms. The slope value, k, was determined by linear regression of the natural logarithm of the remaining percentage of the parent drug vs. incubation time curve. The in vitro half-life (in vitro t1/2) was determined from the slope value: in vitro t1/2=−(0.693)/k.

[4] = Adjuvant-induced arthritis model in rat: Difference of Weight Bearing test (DWB); type: in vivo; conditions: SD rat, CFA-induced arthritis; PO 3 days post CFA; compared to Dexamethasone
[5] = target: MCT1 (Homo sapiens (Human), UniProt P53985); assay: Assay 4: MCT1-mediated lactate transport in BT20 breast cancer cells; type: cell-based; conditions: Table 27
Procedure, shortened: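 BT20 cells loaded with BCECF-AM (30 mM DMSO stock) for 5 min at 37° C, washed and resuspended in Tyrode's Solution pH 7.4. Lactate uptake tracked via BCECF intracellular pH signal after adding 10 mM L-lactate.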

[6] = target: MCT4 (Homo sapiens (Human), UniProt O15427); assay: Assay 3: MCT4-mediated lactate transport in MDA-MB-231 breast cancer cells; type: cell-based; conditions: MDA-MB-231 cells; lactate transport
Procedure, shortened: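 MDA-MB-231 cells loaded with BCECF-AM, 5 min at 37° C, washed and resuspended in Tyrode's Solution, pH 7.4. MCT4 lactate/proton symport followed as the intracellular pH change reported by BCECF fluorescence.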

[7] = Adjuvant-induced arthritis model in rat: Mechanical Allodynia test (MA, Von Frey); type: in vivo; conditions: SD rat, CFA-induced arthritis; PO 3 days post CFA; compared to Dexamethasone
[8] = Metabolic stability in mouse liver microsomes (in vitro t1/2); type: in vitro ADME; conditions: for half-life at 2 µM / Mouse microsome t1/2, min: mouse liver microsomes 0.5 mg/mL, 2 μM compound; for half-life at 2 µM: read-out: Mouse microsome t1/2, min; for Mouse microsome % 60 min: mouse liver microsomes
Procedure, shortened: as §9

[9] = Pharmacokinetic assay in mouse (IV 3 mg/kg, PO 10 mg/kg); type: in vivo; conditions: Male CD1 mouse; for Mouse F: oral bioavailability; for Mouse F / half-life: PO 10 mg/kg; for half-life / Vd: plasma; for half-life: read-out: Mouse t1/2 (converted); for Vd: volume of distribution, read-out: Mouse Vss
Description: as §1, §2, §3, §4, §5, §6, §7, §8

Sequence of MCT4 (O15427 whole entry, looked up): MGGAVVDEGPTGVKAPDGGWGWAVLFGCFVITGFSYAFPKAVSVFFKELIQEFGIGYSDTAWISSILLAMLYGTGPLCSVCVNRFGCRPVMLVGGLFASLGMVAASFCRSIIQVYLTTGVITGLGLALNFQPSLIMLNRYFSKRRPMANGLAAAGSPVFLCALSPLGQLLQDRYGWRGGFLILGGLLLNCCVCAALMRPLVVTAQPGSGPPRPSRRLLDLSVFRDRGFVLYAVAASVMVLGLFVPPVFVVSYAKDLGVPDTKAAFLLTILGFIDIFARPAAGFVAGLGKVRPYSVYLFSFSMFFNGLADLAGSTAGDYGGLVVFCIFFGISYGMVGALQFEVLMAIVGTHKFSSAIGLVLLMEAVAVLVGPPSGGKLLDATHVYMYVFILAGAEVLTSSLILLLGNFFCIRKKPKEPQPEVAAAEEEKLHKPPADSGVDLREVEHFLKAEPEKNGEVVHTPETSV
Sequence of MCT4 (P35613 whole entry partner, looked up): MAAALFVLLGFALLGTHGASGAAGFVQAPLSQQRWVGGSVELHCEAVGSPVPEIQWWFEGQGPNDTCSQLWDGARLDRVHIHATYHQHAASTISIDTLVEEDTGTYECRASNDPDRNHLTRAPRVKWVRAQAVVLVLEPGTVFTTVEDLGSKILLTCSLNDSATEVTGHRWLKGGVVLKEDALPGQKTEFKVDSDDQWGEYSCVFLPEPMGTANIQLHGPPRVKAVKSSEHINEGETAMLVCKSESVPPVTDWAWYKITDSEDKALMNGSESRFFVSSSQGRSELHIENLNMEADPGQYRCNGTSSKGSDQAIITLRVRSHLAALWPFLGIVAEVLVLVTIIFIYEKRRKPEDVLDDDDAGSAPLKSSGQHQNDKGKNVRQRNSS
Sequence of MCT1 (P53985 whole entry): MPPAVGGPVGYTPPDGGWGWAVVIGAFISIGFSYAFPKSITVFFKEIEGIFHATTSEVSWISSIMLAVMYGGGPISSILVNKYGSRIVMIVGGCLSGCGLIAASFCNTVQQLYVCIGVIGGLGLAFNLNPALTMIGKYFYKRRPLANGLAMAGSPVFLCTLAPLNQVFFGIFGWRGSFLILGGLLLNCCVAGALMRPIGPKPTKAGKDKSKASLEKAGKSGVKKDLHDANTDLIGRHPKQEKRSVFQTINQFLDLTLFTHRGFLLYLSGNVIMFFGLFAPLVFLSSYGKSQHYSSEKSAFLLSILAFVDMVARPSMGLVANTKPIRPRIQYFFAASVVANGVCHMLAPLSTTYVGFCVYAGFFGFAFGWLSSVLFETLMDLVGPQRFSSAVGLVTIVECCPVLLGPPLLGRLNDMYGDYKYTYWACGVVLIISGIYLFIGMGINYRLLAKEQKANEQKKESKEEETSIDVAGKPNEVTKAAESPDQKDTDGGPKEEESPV
Sequence of MCT1 (P35613 140-385 partner): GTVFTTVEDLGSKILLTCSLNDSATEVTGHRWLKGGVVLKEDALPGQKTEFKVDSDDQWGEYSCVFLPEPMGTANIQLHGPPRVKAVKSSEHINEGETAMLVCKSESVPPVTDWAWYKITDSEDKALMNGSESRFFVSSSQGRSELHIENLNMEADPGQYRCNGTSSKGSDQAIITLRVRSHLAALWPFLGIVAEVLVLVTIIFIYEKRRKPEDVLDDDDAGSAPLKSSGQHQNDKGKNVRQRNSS

## Cn1ncc2cccc(-n3nc(COC(C)(C)C(=O)O)cc3-c3cccc(OC4CC4)c3)c21 [Example 191, 2-([5-(3-Cyclopropoxyphenyl)-1-(1-methyl-1H-indazol-7-yl)-1H-pyrazol-3-yl]-methoxy)-2-methylpropanoic acid]
[1]
  Rat F: 97%
  half-life: 378 min
  Vd: 1 L/kg
[2]
  half-life at 2 µM: 1400 min
  Human microsome % 60 min: 98%
[3]
  half-life at 2 µM: 556 min
  Rat microsome % 60 min: 94%
[4]
  Difference in Weight Bearing, Minimal Efficacious Dose: >10 mg/kg
[5]
  IC50: 16000 nM
[6]
  IC50: 17 nM
[7]
  Mechanical Allodynia (Von Frey), Minimal Efficacious Dose: >10 mg/kg
[8]
  half-life at 2 µM: 1000 min
  Mouse microsome % 60 min: 97%

## CCOc1cc(OCC)cc(-c2cc(COC(C)(C)C(=O)O)nn2-c2ccccc2Cl)c1 [Example 180, 2-([1-(2-Chlorophenyl)-5-(3,5-diethoxy-phenyl)-1H-pyrazol-3-yl]methoxy)-2-methylpropanoic acid]
[1]
  Rat F: 49%
  half-life: 264 min
  Vd: 0.39 L/kg
[2]
  half-life at 2 µM: 276 min
  Human microsome % 60 min: 88%
[3]
  half-life at 2 µM: 2290 min
  Rat microsome % 60 min: 98%
[4]
  Difference in Weight Bearing, Minimal Efficacious Dose: >10 mg/kg
[5]
  IC50: 28000 nM
[6]
  IC50: 2.9 nM
[7]
  Mechanical Allodynia (Von Frey), Minimal Efficacious Dose: >10 mg/kg
[8]
  Mouse microsome t1/2, min: ∞
  Mouse microsome % 60 min: 103%

## Cc1ccccc1-n1nc(COC(C)(C)C(=O)O)cc1-c1cccc(OC2CCC2)c1 [Example 161, 2-([5-(3-Cyclobutoxyphenyl)-1-(2-methyl-phenyl)-1H-pyrazol-3-yl]methoxy)-2-methylpropanoic acid]
[1]
  Rat F: 61%
  half-life: 342 min
  Vd: 0.32 L/kg
[2]
  half-life at 2 µM: 194 min
  Human microsome % 60 min: 82%
[3]
  half-life at 2 µM: 259 min
  Rat microsome % 60 min: 80%
[4]
  Difference in Weight Bearing, Minimal Efficacious Dose: ≤10 mg/kg
[5]
  IC50: 22000 nM
[6]
  IC50: 3.3 nM
[7]
  Mechanical Allodynia (Von Frey), Minimal Efficacious Dose: ≤10 mg/kg
[8]
  Mouse microsome t1/2, min: ∞
  Mouse microsome % 60 min: 99%

## CCOc1ccccc1Cn1nc(CO[C@](C)(CC)C(=O)O)cc1-c1cc(OC)cc(OC)c1 [Example 264, (2R)-2-([5-(3,5-Dimethoxyphenyl)-1-[(2-ethoxyphenyl)methyl]-1H-pyrazol-3-yl]methoxy)-2-methylbutanoic acid]
[1]
  Rat F: 100%
  half-life: 276 min
  Vd: 2.5 L/kg
[4]
  Difference in Weight Bearing, Minimal Efficacious Dose: 1 mg/kg
[5]
  IC50: 10000 nM
[6]
  IC50: 0.35 nM
[7]
  Mechanical Allodynia (Von Frey), Minimal Efficacious Dose: 1 mg/kg
[9]
  Mouse F: 94%
  half-life: 162 min
  Vd: 1.1 L/kg

## CCn1ncc2ccc(-c3cc(CO[C@](C)(CC)C(=O)O)nn3-c3ccccc3N3CCCC3)cc21 [Example 268, (2R)-2-([5-(1-ethyl-1H-indazol-6-yl)-1-[2-(pyrrolidin-1-yl)phenyl)-1H-pyrazol-3-yl]methoxy)-2-methylbutanoic acid]
[1]
  Rat F: 57%
  half-life: 132 min
  Vd: 0.76 L/kg
[4]
  Difference in Weight Bearing, Minimal Efficacious Dose: 1 mg/kg
[5]
  IC50: 36000 nM
[6]
  IC50: 0.3 nM
[7]
  Mechanical Allodynia (Von Frey), Minimal Efficacious Dose: 1 mg/kg
[9]
  Mouse F: 77%
  half-life: 162 min
  Vd: 0.77 L/kg

## CC(C)(OCc1cc(-c2cccc(OC3CCC3)c2)n(-c2ccccc2N2CCC2)n1)C(=O)O [Example 260, 2-([1-[2-(Azetidin-1-yl)phenyl]-5-(3-cyclobutoxyphenyl)-1H-pyrazol-3-yl]methoxy)-2-methylpropanoic acid]
[1]
  Rat F: 85%
  half-life: 222 min
  Vd: 0.2 L/kg
[4]
  Difference in Weight Bearing, Minimal Efficacious Dose: 1 mg/kg
[5]
  IC50: 26000 nM
[6]
  IC50: 0.83 nM
[7]
  Mechanical Allodynia (Von Frey), Minimal Efficacious Dose: 1 mg/kg
[9]
  Mouse F: 86%
  half-life: 312 min
  Vd: 0.22 L/kg

## CC[C@@](C)(OCc1cc(-c2cccc(OC3CC3)c2)n(-c2ccccc2N2CCC2)n1)C(=O)O [Example 266]
[1]
  Rat F: 100%
  half-life: 162 min
  Vd: 0.23 L/kg
[4]
  Difference in Weight Bearing, Minimal Efficacious Dose: 3 mg/kg
[5]
  IC50: 64000 nM
[6]
  IC50: 0.36 nM
[7]
  Mechanical Allodynia (Von Frey), Minimal Efficacious Dose: 3 mg/kg
[9]
  Mouse F: 100%
  half-life: 228 min
  Vd: 0.36 L/kg

## COc1cc(OC)cc(-c2cc(COC(C)(C)C(=O)O)nn2Cc2ccccc2Cl)c1 [Example 224, 2-([1-[(2-Chlorophenyl)methyl]-5-(3,5-di-methoxyphenyl)-1H-pyrazol-3-yl]methoxy)-2-methylpropanoic acid]
[1]
  Rat F: 53%
  half-life: 156 min
  Vd: 1.3 L/kg
[2]
  half-life at 2 µM: 736 min
  Human microsome % 60 min: 91%
[3]
  half-life at 2 µM: 132 min
  Rat microsome % 60 min: 73%
[4]
  Difference in Weight Bearing, Minimal Efficacious Dose: ≤10 mg/kg
[5]
  IC50: 30000 nM
[6]
  IC50: 4.1 nM
[7]
  Mechanical Allodynia (Von Frey), Minimal Efficacious Dose: ≤10 mg/kg
[8]
  half-life at 2 µM: 829 min
  Mouse microsome % 60 min: 98%

## CCOc1ccccc1Cn1nc(COC(C)(C)C(=O)O)cc1-c1cc(OC)cc(OC)c1 [Example 211]
[1]
  Rat F: 55%
  half-life: 216 min
  Vd: 3.6 L/kg
[2]
  half-life at 2 µM: 180 min
  Human microsome % 60 min: 78%
[3]
  half-life at 2 µM: 73 min
  Rat microsome % 60 min: 57%
[5]
  IC50: 20000 nM
[6]
  IC50: 2.4 nM
[9]
  Mouse F: 57%
  half-life: 114 min
  Vd: 1.5 L/kg
[8]
  half-life at 2 µM: 49 min
  Mouse microsome % 60 min: 43%

## CC(C)(OCc1cc(-c2cccc(OC3CCC3)c2)n(-c2ccccc2Cl)n1)C(=O)O [Example 175, 2-([1-(2-Chlorophenyl)-5-(3-cyclobutoxy-phenyl)-1H-pyrazol-3-yl]methoxy)-2-methylpropanoic acid]
[1]
  Rat F: 48%
  half-life: 252 min
  Vd: 0.4 L/kg
[2]
  half-life at 2 µM: 212 min
  Human microsome % 60 min: 83%
[3]
  half-life at 2 µM: 315 min
  Rat microsome % 60 min: 87%
[4]
  Difference in Weight Bearing, Minimal Efficacious Dose: >10 mg/kg
[7]
  Mechanical Allodynia (Von Frey), Minimal Efficacious Dose: >10 mg/kg
[8]
  half-life at 2 µM: 711 min
  Mouse microsome % 60 min: 94%

## COc1cc(OC)cc(-c2cc(COC(C)(C)C(=O)O)nn2-c2ccccc2Cl)c1 [Example 179, 2-([1-(2-Chlorophenyl)-5-(3,5-dimethoxy-phenyl)-1H-pyrazol-3-yl]methoxy)-2-methylpropanoic acid]
[1]
  Rat F: 76%
  half-life: 132 min
  Vd: 0.3 L/kg
[2]
  half-life at 2 µM: 644 min
  Human microsome % 60 min: 93%
[3]
  half-life at 2 µM: 318 min
  Rat microsome % 60 min: 85%
[4]
  Difference in Weight Bearing, Minimal Efficacious Dose: ≤10 mg/kg
[5]
  IC50: > 100000 nM
[6]
  IC50: 13 nM
[7]
  Mechanical Allodynia (Von Frey), Minimal Efficacious Dose: <10 mg/kg
[8]
  Mouse microsome t1/2, min: ∞
  Mouse microsome % 60 min: 98%
